Experiment [1] deals with Protease (Human immunodeficiency virus 1, UniProt Q9YQ12). Briefly: Inhibition of recombinant wild type HIV1 protease assessed as hydrolysis of fluorogenic substrate.
Experiment [2] relates to Human immunodeficiency virus type 1 protease (Human immunodeficiency virus 1), Q72874 [V82A]. Briefly: Inhibition of recombinant HIV1 protease V82A mutant assessed as residual activity at 1 nM by fluorogenic substrate assay; values are per cent of control.
Experiment [3] concerns the target Protease (Human immunodeficiency virus 1) (UniProt Q9YQ12). Nature of the experiment: Inhibition of recombinant HIV1 protease assessed as residual activity at 10 nM by fluorogenic substrate assay; values are per cent of control.
The subject of experiment [4] is Human immunodeficiency virus type 1 protease (Human immunodeficiency virus 1), Q72874 [V32I]. Nature of the experiment: Inhibition of recombinant HIV1 protease V32I mutant assessed as residual activity at 1 nM by fluorogenic substrate assay; values are per cent of control.
The target of experiment [5] is Protease (Human immunodeficiency virus 1) (UniProt Q9YQ12). Nature of the experiment: Inhibition of recombinant wild type HIV1 protease assessed as residual activity at 1 nM by fluorogenic substrate assay; values are per cent of control.
Chain of Protease (Human immunodeficiency virus 1) (Q9YQ12 as listed by the source): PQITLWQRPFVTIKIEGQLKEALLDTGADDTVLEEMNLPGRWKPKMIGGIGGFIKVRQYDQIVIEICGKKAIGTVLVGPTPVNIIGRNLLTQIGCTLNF
For experiment [6], the system named is Human immunodeficiency virus type 1 protease (Human immunodeficiency virus 1), Q72874 [V32I]. Briefly: Inhibition of recombinant HIV1 protease V32I mutant assessed as residual activity at 10 nM by fluorogenic substrate assay; values are per cent of control.

Chain of Protease (Q9YQ12 whole entry): as the sequence (Q9YQ12 as listed by the source) above

For `CC(C)(C)NC(=O)[C@@H]1C[C@@H]2CCCC[C@@H]2CN1C[C@@H](O)[C@@H](NC(=O)[C@H](CC(N)=O)NC(=O)c1ccc2ccccc2n1)c1cccs1`, the IC50 (usually the midpoint of a concentration-inhibition curve) in experiment [1] was 5000 nM.

For the compound `Cc1c(O)cccc1C(=O)N[C@@H](CSc1ccccc1)[C@H](O)CN1C[C@H]2CCCC[C@H]2C[C@H]1C(=O)NC(C)(C)C`, the half-inhibitory concentration (IC50) in experiment [1] came to 1.9 nM.

Regarding `Cc1c(O)cccc1C(=O)N[C@@H](Cc1cc2ccccc2s1)[C@H](O)CN1C[C@H]2CCCC[C@H]2C[C@H]1C(=O)NC(C)(C)C`, in experiment [1], the concentration for half-maximal inhibition (IC50) is 15 nM.

For `Cc1c(O)cccc1C(=O)N[C@@H](Cc1cccs1)[C@H](O)CN1C[C@H]2CCCC[C@H]2C[C@H]1C(=O)NC(C)(C)C`, the residual activity – broadly, the signal under treatment as a percentage of the control signal – was determined as 60% in experiment [2]; 5% in experiment [3]; 97% in experiment [4]; 34% in experiment [5]; 32% in experiment [6]. Besides, the IC50 in experiment [1] came out at 2.9 nM.

As to `Cc1c(O)cccc1C(=O)N[C@@H](c1cc(-c2ccccc2)cs1)[C@H](O)CN1C[C@H]2CCCC[C@H]2C[C@H]1C(=O)NC(C)(C)C`, the IC50 in experiment [1] was 4000 nM.

For `CC(C)(C)NC(=O)[C@@H]1C[C@@H]2CCCC[C@@H]2CN1C[C@@H](O)[C@H](Cc1cccs1)NC(=O)C(CC(N)=O)NC(=O)c1ccc2ccccc2n1` (single isomer, unassigned), in experiment [1], the IC50 came out at 21 nM.

Consider `CC(C)(C)NC(=O)[C@@H]1C[C@@H]2CCCC[C@@H]2CN1C[C@@H](O)[C@@H](NC(=O)[C@H](CC(N)=O)NC(=O)c1ccc2ccccc2n1)c1cc(-c2ccccc2)cs1`, for which the IC50 in experiment [1] was determined as 1500 nM.

`CC(C)(C)NC(=O)[C@@H]1C[C@@H]2CCCC[C@@H]2CN1C[C@@H](O)[C@H](Cc1cc2ccccc2s1)NC(=O)C(CC(N)=O)NC(=O)c1ccc2ccccc2n1` (single isomer, unassigned): the residual activity in experiment [2] came out at 37%; in experiment [5] it was 53%. Besides, the half-inhibitory concentration (IC50) in experiment [1] was determined as 0.6 nM.

Consider `Cc1c(O)cccc1C(=O)N[C@@H](Cc1cc(-c2ccccc2)cs1)[C@H](O)CN1C[C@H]2CCCC[C@H]2C[C@H]1C(=O)NC(C)(C)C`, for which the half-inhibitory concentration (IC50) in experiment [1] was 6 nM.

On to `CC(C)(C)NC(=O)[C@@H]1C[C@@H]2CCCC[C@@H]2CN1C[C@@H](O)[C@H](Cc1cc(-c2ccccc2)cs1)NC(=O)C(CC(N)=O)NC(=O)c1ccc2ccccc2n1` (single isomer, unassigned), for which, in experiment [1], the concentration for half-maximal inhibition (IC50) was 1.2 nM.

Take `Cc1c(O)cccc1C(=O)N[C@@H](c1cccs1)[C@H](O)CN1C[C@H]2CCCC[C@H]2C[C@H]1C(=O)NC(C)(C)C`: the IC50 in experiment [1] is 30000 nM.

For the origin of these results see ChEMBL document CHEMBL1156915, “Synthesis of new thienyl ring containing HIV-1 protease inhibitors: promising preliminary pharmacological evaluation against recombinant HIV-1 proteases” (J Med Chem, 2010).
